Reference: patent publication US9233949B2, “Treatment for oxidative stress and/or hypertension” (Georgetown University, priority 2009, dated 2016)

What was measured:
[1] = tested on: conscious spontaneously hypertensive rats; experiment: Telemetric mean arterial pressure in conscious SHR on high salt diet after gavage; type: in vivo, rat; settings: for reduction of MAP: 80 μmol·kg^−1 once-daily gavage, high salt diet, maximal 16-24 hours after each gavage; for reduction of BP compared with tempol: after the first and the fourth gavage
Method: Spontaneously hypertensive rats (SHR) were anesthetized with 3% isoflurane for placement of telemetric blood pressure recorders as described (46). After 10 days, spontaneously hypertensive rats were anesthetized with halothane between 9 and 10 am and given a 2 mL gavage. Each rat was first given a training gavage with 2 mL of vehicle (0.9% w/v sodium chloride) and, two days later a second vehicle gavage as the control group. We detected no differences in the pattern of 4-hourly BP recording after the first or second vehicle gavage, compared to a day in which no gavage was given (data not shown). Blood pressure was recorded continuously. Data are presented as mean values over 4-hr periods for mean arterial pressure (MAP) and heart rate (HR). Two days after the second vehicle gavage, rats were again anesthetized with halothane and given a 2 mL gavage with one of the test drugs (10 mmol/L or 80 μmol·kg^−1). In random order rats received tempol, telmisartan, tempol plus telmisartan, or tempol/telmisartan ester-linked adduct (YK). Each rat received only one drug or drug combination. Two additional groups were tested similarly with candesartan and tempol+candesartan.
Preliminary studies were undertaken of antihypertensive responsiveness to gavage with 80 and 800 μmol kg^−1 of tempol. […] Therefore, the study was conducted in rats equilibrated to a high salt intake (Teklad Inc, 2826 Latham Drive, Madison, Wis. 53713) and given four daily doses of […] of drugs or vehicle.

[2] = tested on: conscious salt-loaded spontaneously hypertensive rats; experiment: MAP in conscious salt-loaded SHR, daily oral gavage of drugs dissolved in DMSO; type: in vivo, rat; settings: for Δ MAP Day 1 / Δ MAP Day 2 / Δ MAP Day 3: mean vehicle-adjusted fall, 2 mL of 10 mmol/L daily oral gavage, DMSO, n=3; for blood pressure effect, summary of Table 1: over three days, DMSO vehicle
Method: In another experiment, conscious salt-loaded spontaneously hypertensive rats received daily oral gavage with 2 mL of 10 mmol/L tempol, telmisartan, tempol/telmisartan ester-linked adduct (YK), tempamine/telmisartan amide-linked adduct (PLJ), and tempol+telmisartan. The drugs were dissolved in DMSO.

[3] = tested on: O2.^− generated by xanthine plus xanthine oxidase; experiment: Cell-free SOD mimetic / antioxidant assay, lucigenin-enhanced chemiluminescence; type: biochemical; settings: drugs 10^−4 M, cell-free buffer with xanthine plus xanthine oxidase
Method: Low dose (10 μmol L^−1) lucigenin-enhanced chemiluminescence was used as previously described, to detect O2.^−, antioxidants or SOD mimetic properties. Vehicle or drugs (10^−4 M) were first added to cell-free buffer with O2.^− stimulated with xanthine (25 μmol/L) plus xanthine oxidase (9 IU/mL) to study the intrinsic antioxidant properties of the drugs used (34). Subsequent studies were performed in PGVSMCs from spontaneously hypertensive rats grown in 6-well plates. Cells (10^6 cells per well) were stimulated for 4 hours with Ang II (10^−6 M) to generate O2.^− in the presence of vehicle or drugs (19, 34, 45).

[4] = tested on: Ang II-stimulated spontaneously hypertensive rat preglomerular vascular smooth muscle cells; experiment: O2.^− generation in Ang II-stimulated PGVSMCs, lucigenin-enhanced chemiluminescence; type: cell-based
Method: Preglomerular vascular smooth muscle cells (PGVSMCs) were isolated from 13- to 15-week-old male spontaneously hypertensive rats purchased from Taconic Farms (Germantown, N.Y.) as previously described (3, 9). Briefly, 1% Fe2O3 in DMEM was injected into isolated kidneys through the renal artery. The iron-loaded kidney was removed from the rat, the cortex was minced and washed in a 1% collagenase IV solution. Blood vessels were collected on a magnet and incubated with DMEM/F12 supplemented with 10% FCS and 20 U of penicillin-streptomycin. Experiments were conducted between passage 5 and 15. PGVSMCs were cultured in DMEM/F12 supplemented with 10% FBS, 100 U/mL penicillin, 100 μg/mL streptomycin and 200 μg/mL glutamine at 37° C. in 5% CO2-95% air at 98% humidity. […]
To determine the effects of drugs, cells were pretreated with graded concentrations (10^−12 to 10^−4 M) of tempol, telmisartan, tempol plus telmisartan, and tempol/telmisartan ester-linked adduct or vehicle (PBS) for 2 hours. […] Chemiluminescence was quantitated in a reader (AutoLumatPlus LB 953; EG&G, Berthold, Germany). The dynamic tracing was recorded for 180 seconds after the addition of lucigenin (10 μmol·L^−1) and NADPH (100 μmol·L^−1). […] The protein concentrations were measured with Bio-Rad kit (Hercules, Calif.). […]

AT2-R = target: T1, AT2-R (Bos taurus, UniProt G5E6F7); experiment: Angiotensin II, Type 2 receptor radioligand binding displacement; parameters: species or system bovine; settings: 10^−8 M drug concentration, n=2 (FIG. 3B)
T1 construct: from tissue; host or cells: bovine cerebellum membranes
T1 sequence (G5E6F7 1-362): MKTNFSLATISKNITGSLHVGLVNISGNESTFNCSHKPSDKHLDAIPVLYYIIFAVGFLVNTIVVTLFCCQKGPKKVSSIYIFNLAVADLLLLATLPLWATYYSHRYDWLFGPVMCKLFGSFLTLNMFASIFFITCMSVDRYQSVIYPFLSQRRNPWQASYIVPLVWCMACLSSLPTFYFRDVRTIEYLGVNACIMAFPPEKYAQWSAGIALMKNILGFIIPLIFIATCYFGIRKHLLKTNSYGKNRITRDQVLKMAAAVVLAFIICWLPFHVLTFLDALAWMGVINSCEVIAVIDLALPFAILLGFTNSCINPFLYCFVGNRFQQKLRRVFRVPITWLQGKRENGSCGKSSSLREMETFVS
Method: Angiogensin II, Type 2 Assay.
The assay was performed with a membrane preparation from bovine cerebellum. 200 μL of receptor suspension was re-suspended as 400 units in 80 mL and 100 units in 20 mL. The ligand [^125I]Tyr-4-Angiotensin II ([M] 1E-^10, Kd (binding affinity) 4E-^10, Bmax 2.11 fmol/mg) was used as a control. Radioactivity was counted in DPM. The assay buffer was 50 mM TRIS-HCl, containing 100 mM NaCl, 1 mM MgCl2, 0.1 mM Bacitracin, 0.1% BSA, (pH 7.2 at 25° C.) in an assay volume of 250 μL. Radioligand: 25 μL of Sar1, Tyr4-[^125I].

| Compound | reduction of MAP [1] | reduction of BP compared with tempol [1] | Δ MAP Day 1 [2] | Δ MAP Day 2 [2] | Δ MAP Day 3 [2] | blood pressure effect, summary of Table 1 [2] | inhibition of lucigenin-enhanced chemiluminescence counts [3] | inhibition of O2.^− generation, tempol versus telmisartan ([4]; at 10^−4 M) | fall in MAP, high salt (6 g·100 g^−1) compared to normal salt (0.3 g·100 g^−1) diet ([1]; pilot study, 16-24 hours after tempol 80 μmol kg^−1) | fall in MAP after 4 daily doses compared to the first dose ([1]; pilot study, high salt intake) | AT2-R binding displacement (AT2-R) | inhibition of O2.^− generation ([4]; 10^−12 to 10^−4 M, 10^−6 M Ang II for 4 hours, comparison at 10^−11, 10^−10 and 10^−6 M) | reduction of BP compared with single drugs ([1]; 12-24 hours after the first gavage) | additive effect on BP with repeated dosing ([1]; 16-24 hours after the fourth gavage) | reduction of MAP compared with candesartan or candesartan plus tempol ([1]; over 24 hours) | reduction of blood pressure compared with candesartan or candesartan plus tempol ([1]; over four days) |
| --- | --- | --- | --- | --- | --- | --- | --- | --- | --- | --- | --- | --- | --- | --- | --- | --- |
| CCOc1nc2cccc(C(=O)O)c2n1Cc1ccc(-c2ccccc2-c2nnn[nH]2)cc1 [candesartan] | reduced the MAP | significantly more effective in reducing the BP than tempol | – | – | – | – | – | – | – | – | – | – | – | – | – | – |
| CCCc1nc2c(C)cc(-c3nc4ccccc4n3C)cc2n1Cc1ccc(-c2ccccc2C(=O)NC2CC(C)(C)N([O])C(C)(C)C2)cc1 [PLJ] | – | – | −13 mmHg | −14 mmHg | −14 mmHg | reduce blood pressure of conscious SHR similar to telmisartan | – | – | – | – | – | – | – | – | – | – |
| CCCc1nc2c(C)cc(-c3nc4ccccc4n3C)cc2n1Cc1ccc(-c2ccccc2C(=O)O)cc1 [Telmisartan, telmisartan] | reduced the MAP | significantly more effective in reducing the BP than tempol | −14 mmHg | −20 mmHg | −16 mmHg | – | ineffective | – | – | – | – | – | – | – | – | – |
| CC1(C)CC(O)CC(C)(C)N1[O] [Tempol, tempol] | reduced the MAP | – | 0 mmHg | −4 mmHg | −2 mmHg | apparent absence of any consistent effect | – | significantly (p<0.05) more effective than telmisartan | twice as great | twice as great | – | – | – | – | – | – |
| CCCc1nc2c(C)cc(-c3nc4ccccc4n3C)cc2n1Cc1ccc(-c2ccccc2C(=O)OC2CC(C)(C)N([O])C(C)(C)C2)cc1 [YK] | reduced the MAP | – | −13 mmHg | −14 mmHg | −14 mmHg | reduce blood pressure of conscious SHR similar to telmisartan | – | – | – | – | without effects on AT2-R binding | significantly more effective than tempol or telmisartan alone | more effective than either tempol or telmisartan | lost with repeated dosing | reduced MAP significantly more than candesartan or candesartan plus tempol | still reduced blood pressure more than candesartan or candesartan plus tempol |
